# Reference: patent US12317914B2, “Compositions and methods using one or more autophagy-inducing amino acids to potentiate musculoskeletal effect of one or more anabolic amino acids” (SOCIETE DES PRODUITS NESTLE S.A., priority 2019, dated 2025)
# System: LC3 protein fused to ZsGreen
# Experiment: zebrafish autophagy reporter (LC3-ZsGreen, skeletal muscle specific promoter), number of LC3 punctae
# Format: in vivo
# Conditions: zebrafish larvae treated at 48 h post-fertilization, 0.25 to 10 mM, 16 hours of treatment
# Method: After 16 hours of treatment larvae were anesthetized with 0.016% tricaine and imaged with ImageXpress confocal system at 20× magnification (Molecular Devices). Z stack images were captured for each larva and maximal projection images were produced. Number of LC3 punctae have been calculated with MetaXpress software (Moleculare Devices) and normalized by fish area.
row,SMILES,effect on autophagy (number of LC3 punctae normalized by fish area)
1,CC(=O)N[C@@H](CS)C(=O)O [N-Acetyl Cysteine],strongly induce autophagy
2,N[C@@H](CCC(=O)O)C(=O)O [Glutamate],strongly induce autophagy
3,N[C@@H](CS)C(=O)O [Cysteine],strongly induce autophagy
4,N=C(N)NCCC[C@H](N)C(=O)O [Arginine],reduce basal autophagy
5,CC(C)C[C@H](N)C(=O)O [Leucine],reduce basal autophagy
6,NCC(=O)O [Glycine],strongly induce autophagy
7,CC(C)[C@H](N)C(=O)O [Valine],strongly induce autophagy
8,NC(=O)CC[C@H](N)C(=O)O [Glutamine],reduce basal autophagy
9,CSCC[C@H](N)C(=O)O [Methionine],strongly induce autophagy
10,N[C@@H](Cc1ccc(O)cc1)C(=O)O [Tyrosine],strongly induce autophagy
11,O=C(O)[C@@H]1CCCN1 [Proline],strongly induce autophagy
12,CC[C@H](C)[C@H](N)C(=O)O [Isoleucine],reduce basal autophagy
13,N[C@@H](CO)C(=O)O [Serine],strongly induce autophagy
